From article PMC7377239, “Cardiovascular Effects of Polychlorinated Biphenyls and Their Major Metabolites” (Environmental Health Perspectives, 2020) come the findings set out here.

Counter-ions that a name gives are not always drawn. Like-named read-outs stand apart in the source and are kept apart here.

Assay [1] concerns iCell endothelial cells (human iPSC-derived ECs). Nature of the assay: Tube formation (tubulogenesis) assay in iCell endothelial cells, 18 h. The format is cell-based. To be noted: Homo sapiens, Endothelial cell, 18 hr; for activity at 0.1 µM: 0.10 µM. Put shortly:
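iCell ECs (passages 1–5) seeded 7,500 cells/well on reduced-growth-factor Geltrex in starvation medium, exposed overnight at 37°C to compounds in triplicate concentration–response (0.5% DMSO vehicle). Calcein AM staining, 4× imaging, angiogenesis image analysis; readouts normalized to vehicle, four-parameter logistic fit, POD at 1 SD of vehicle; 100 μM assigned NOAEL if no response.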

Another assay concerns HUVECs. Nature of the assay: Tube formation (tubulogenesis) assay in HUVECs, 18 h. The format is cell-based, human. To be noted: Homo sapiens, HUVEC, 18 h, HUVEC; for activity at 0.1 µM: 0.10 µM. Put shortly: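 HUVECs (passage 1–5) seeded on reduced-growth-factor basement membrane and exposed to compounds overnight at 37°C, 5% CO2, in 2× maintenance medium with 12.5 ng/mL VEGF; 0.5% DMSO vehicle. Calcein AM-stained tube networks imaged and analysed; vehicle-normalized readouts fit to four-parameter logistic, POD set at one SD of vehicle means.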

Setting [2] is: endothelial cells (endo), tube formation mtl, read-out: POD endo.mtl.18hr.
[3] abbreviates: endothelial cells (endo), tube formation tlps, read-out: POD endo.tlps.18hr.
The mark [4] stands for this setting: endothelial cells (endo), tube formation tta, read-out: POD endo.tta.18hr.
[5] abbreviates: endothelial cells (endo), tube formation ttl, read-out: POD endo.ttl.18hr.
Setting [6] is: tube formation mtl, read-out: POD huvec.mtl.18hr.
The mark [7] stands for this setting: tube formation tlps, read-out: POD huvec.tlps.18hr.
[8] abbreviates: tube formation tta, read-out: POD huvec.tta.18hr.
Setting [9] is: tube formation ttl, read-out: POD huvec.ttl.18hr.
Where [10] appears, read: iPSC-EC tube formation, 0.00 µM control = 100.00, read-out: endo.mtl.18hr.
Where [11] appears, read: iPSC-EC tube formation, 0.00 µM control = 100.00, read-out: endo.tlps.18hr.
Where [12] appears, read: iPSC-EC tube formation, 0.00 µM control = 100.00, read-out: endo.tta.18hr.
Setting [13] is: iPSC-EC tube formation, 0.00 µM control = 100.00, read-out: endo.ttl.18hr.
Where [14] appears, read: HUVECs, 0.00 µM = 100.00, read-out: huvec.mtl.18hr.
Setting [15] is: HUVECs, 0.00 µM = 100.00, read-out: huvec.tlps.18hr.
[16] abbreviates: HUVECs, 0.00 µM = 100.00, read-out: huvec.tta.18hr.
Where [17] appears, read: HUVECs, 0.00 µM = 100.00, read-out: huvec.ttl.18hr.

As to `Oc1cccc(-c2ccc(Cl)cc2)c1` [3'-OH-PCB 3], the minimal effective concentration in assay [1] (setting [2]) was 0.36 µM; in assay [1] (setting [3]) it was 1.03 µM; in assay [1] (setting [4]), 0.49 µM; in assay [1] (setting [5]), 0.51 µM; with HUVECs (setting [6]) it was 1.14 µM; in the assay on HUVECs (setting [7]), 1.01 µM. Moreover, the figures for the minimal effective concentration in the assay with HUVECs (setting [8]) and with HUVECs (setting [9]) were 3.65 µM and 3.26 µM, respectively.
Regarding `O=S(=O)(O)Oc1cccc(-c2ccc(Cl)cc2)c1` [3'-PCB 3 sulfate], the minimal effective concentration in assay [1] (setting [2]) was 0.58 µM; in assay [1] (setting [3]), 38.6 µM; in assay [1] (setting [4]) it was 11.6 µM; in assay [1] (setting [5]) it was 8.75 µM; in the assay on HUVECs (setting [6]) it was 15.5 µM; in the assay on HUVECs (setting [7]), 100 µM. For the same compound, the minimal effective concentration with HUVECs (setting [8]) and with HUVECs (setting [9]) was 100 µM throughout.
Consider `O=S(=O)(O)Oc1cccc(-c2ccc(Cl)cc2)c1` [3'-yl PCB 3 sulfate], for which the activity at 0.01 µM in assay [1] (setting [10]) worked out at 93.5%; in assay [1] (setting [11]), 81.8%; in assay [1] (setting [12]), 112%; in assay [1] (setting [13]) it was 103%; in the assay on HUVECs (setting [14]), 106%; in the assay with HUVECs (setting [15]), 119%. In addition, the activity at 0.01 µM in the assay on HUVECs (setting [16]) was 121%; in the assay on HUVECs (setting [17]) it was 112%. Also, the activity at 0.1 µM in assay [1] (setting [10]) was determined as 87.9%; in assay [1] (setting [11]), 126%; in assay [1] (setting [12]) it was 93%; in assay [1] (setting [13]), 88.2%; in the assay with HUVECs (setting [14]), 110%; in the assay on HUVECs (setting [15]), 121%. For the same compound, the activity at 0.1 µM in the assay on HUVECs (setting [16]) came to 141%; with HUVECs (setting [17]), 142%. The activity at 1 µM came to 91.5% in assay [1] (setting [10]); 103% in assay [1] (setting [11]); 108% in assay [1] (setting [12]); 98.9% in assay [1] (setting [13]); 111% with HUVECs (setting [14]); 129% in the assay on HUVECs (setting [15]). Also, the activity at 1 µM in the assay with HUVECs (setting [16]) was 141%; in the assay with HUVECs (setting [17]) it was 137%. For the same compound, the activity at 10 µM in assay [1] (setting [10]) is 70.7%; in assay [1] (setting [11]), 99.4%; in assay [1] (setting [12]), 63.7%; in assay [1] (setting [13]), 60%; in the assay with HUVECs (setting [14]), 97.5%; in the assay with HUVECs (setting [15]), 141%. For the same compound, the activity at 10 µM in the assay on HUVECs (setting [16]) worked out at 104%; in the assay on HUVECs (setting [17]), 102%. The activity at 100 µM in assay [1] (setting [10]) was 59.2%; in assay [1] (setting [11]), 33.7%; in assay [1] (setting [12]), 59.5%; in assay [1] (setting [13]), 60.4%; in the assay with HUVECs (setting [14]) it was 58%; in the assay on HUVECs (setting [15]), 37.8%. The activity at 100 µM with HUVECs (setting [16]) was 52.3%; in the assay on HUVECs (setting [17]), 58.3%. Besides, the minimal effective concentration in assay [1] (iPSC-EC tube formation, top concentration 100.00 µM, read-out: endo.mtl.18hr POD) amounted to 0.58 µM; in assay [1] (iPSC-EC tube formation, top concentration 100.00 µM, read-out: endo.tlps.18hr POD) it was 38.6 µM; in assay [1] (iPSC-EC tube formation, top concentration 100.00 µM, read-out: endo.tta.18hr POD) it was 11.6 µM; in assay [1] (iPSC-EC tube formation, top concentration 100.00 µM, read-out: endo.ttl.18hr POD), 8.75 µM; with HUVECs (HUVECs, top concentration 100.00 µM, read-out: huvec.mtl.18hr POD) it was 15.5 µM; in the assay on HUVECs (HUVECs, top concentration 100.00 µM, read-out: huvec.tlps.18hr POD), 100 µM. For the same compound, the minimal effective concentration came out at 100 µM with HUVECs (HUVECs, top concentration 100.00 µM, read-out: huvec.tta.18hr POD) and 100 µM with HUVECs (HUVECs, top concentration 100.00 µM, read-out: huvec.ttl.18hr POD).
In the case of `O=S(=O)(O)Oc1cc(-c2ccccc2)ccc1Cl` [3-PCB 3 sulfate], the minimal effective concentration amounted to 100 µM in assay [1] (setting [2]); 6.75 µM in assay [1] (setting [3]); 100 µM in assay [1] (setting [4]); 100 µM in assay [1] (setting [5]); 11.5 µM in the assay with HUVECs (setting [6]); 65.8 µM in the assay on HUVECs (setting [7]). For the same compound, the minimal effective concentration in the assay with HUVECs (setting [8]) came to 100 µM; in the assay on HUVECs (setting [9]), 52.1 µM.
